Consider ten compounds from patent US5994365A, “Substituted diazaanthracene compounds having pharmaceutical utility” (Diazans Limited, priority 1998, dated 1999).

One test deals with Hymenolepis nata. As to conditions: U.S. Pat. No. 3,862,945; cited from earlier work.
The next test relates to S. aureus. As to conditions: taken from Antibiotics in Laboratory Medicine; cited from earlier work.
For test [1], the system named is S. aureus ATCC 25923. As to the kind of experiment: Microbroth dilution assay of antimicrobial susceptibility (MIC). The format is cell-based, Staphylococcus aureus. The following applies: microdilution, CAMHB, 37° C. As for the experimental part:
It is described below, using E. coli ATCC® 25922, S. aureus ATCC® 25923, and P. aeruginosa ATCC® 27853. Prepare 0.0128 g DAA in 10 mL dH2 O (or 95% EtOH, methanol or DMSO if H2 O insoluble)=1280 μg/mL (stock solution). Dilute DAA stock solution 1:10 with CAMHB (Cation-Adjusted Mueller Hinton Broth): 0.5 mL DAA stock solution+4.5 mL CAMHB=128 μg/mL (DAA working solution). Pipette 100 μl of sterile CAMHB per well into columns 2-12 of rows A-G using Eppendorf repeater pipette. Pipette 100 μl per well of sterile-filtered DAA working solution into columns 1 and 2 of rows A, C, E, G using Jensen electric pipette. Mix and transfer 100 μl from column 2 to 3 of rows A, C, E, G using Jensen pipette. Repeat to column 12 then discard 100 μl from column 12. Rows B, D and F are positive growth control lanes for each organism and contain only CAMHB and the organism--no DAA. Row H is the media additive control lane, if necessary (e.g. MeOH, EtOH, DMSO etc.). The concentration of the media additive is obtained by doing a 1:10 dilution of the additive with CAMHB (0.5 mL additive+4.5 mL CAMHB). Row G is considered to be "negative growth control" and is loaded with only CAMHB and the DAA. Inoculate 0.5 mL TSB (Trypticase Soy Broth) tubes with 3 single colonies each of E. coli, S. aureus, and P. Aeruginosa from TSA plates using sterile needle. Incubate @ 37° C. for 4-6 hr. Measure out 100 mL CAMHB using the sterile 100 mL volumetric flask. Pour the excess into a sterile reagent reservoir. Pipette 0.5 mL and discard, leaving 99.5 mL in each of the 3-Erlenmeyer flasks. Set aside. Use the excess CAMHB for the 1:10 dilution of inoculum: 0.5 mL inoculum+4.5 mL CAMHB. Perform a 1:200 dilution of inoculum: 0.5 mL of 1:10 diluted inoculum+99.5 mL CAMHB from previous step. Pipette 100 μl (using Eppendorf repeater pipette) E. coli into each well in columns 1-12 of rows A and B and columns 1-4 of row H (if media additive control lane necessary). Pipette 100 μl P. aeruginosa into each well in columns 1-12 of rows C and D and columns 5-8 of row H (if media additive control lane is necessary). Pipette 100 μl S. aureus into each well in columns 1-12 of rows E and F and columns 9-12 of row H (if media additive control lane is necessary). Incubate microtiter plates @ 37° C. for 18 hrs. The lowest concentration of antimicrobial agent that results in significant inhibition of visible growth represents the MIC (Minimal Inhibitory Concentration).
(In general: Dilution methods test growth across graded concentrations, often in twofold steps.)

A further test deals with 41-SK. As to the kind of experiment: Antineoplastic activity, fluorescence based live-cell/dead cell ratio. Also on record: species or system human. As for the experimental part: (§1) Values of IC50 (inhibitory concentration 50%) were calculated from the relative percent transmitted light as detected on a fluorescence 96 well plate reader.
Test [2] concerns Escherichia coli ATCC 25922. As to the kind of experiment: Macrobroth dilution testing for antimicrobial activity (MIC). The format is cell-based. The following applies: ATCC25922, 18 h, macrodilution, read-out: Minimum Inhibitory Concentration. As for the experimental part:
(§2) A working antimicrobial solution was prepared by diluting the test compound in Mueller Hinton Broth (MHB) to the highest final concentration desired. The test was performed in 13×100 mm test tubes. Two mL of the working solution of test compound were added to test tube 1 of the dilution series. To each remaining tube, 1.0 mL of MHB was added. A sterile pipette was used to transfer 1.0 mL from tube 1 to tube 2. After thorough mixing 1.0 mL was transferred (with a separate pipette for this and each succeeding transfer) to tube 3. This process was continued to the next to last tube from which 1.0 mL was removed and discarded. The last tube received no antimicrobial agent and served as a growth control. The inoculum was prepared and adjusted to contain […] by adjusting the turbidity of a broth culture to match to 0.5 McFarland standard. It was then further diluted 1:200 in broth. One mL of the adjusted inoculum was added to each test tube. The final concentrations of antimicrobial agents in this test were half those of the initial dilution series because of the addition of an equal volume of inoculum in broth. Tubes were incubated at 35° C. for 18 hours. […] A very faint haziness or a small button is usually disregarded.

Test [3] has as its system Staphlococcus aureus ATCC 25923. The description is as above. The format is cell-based. The following applies: Staphylococcus aureus, ATCC25923, 18 h, macrodilution, read-out: Minimum Inhibitory Concentration. As for the experimental part: as §2
The subject of test [4] is Pseudomonas aeruginosa ATCC 27853. The test is described as above. It is filed as cell-based. The following applies: ATCC27853, 18 h, macrodilution, read-out: Minimum Inhibitory Concentration. As for the experimental part: as §2
In a further test the test system is C. albicans ATCC 90028. As to the kind of experiment: In vitro antifungal susceptibility assay adapted from NCCLS (MIC). It is filed as cell-based, Candida albicans. As for the experimental part:
(§3) Compounds of the invention also display antifungal activities. […] Using C. albicans ATCC® 90028, C. neoformans ATCC® 90112 and T. glabrata ATCC® 90030, the protocol is performed as follows:
(§4) Prepare 0.0128 g DAA in 10 mL dH2 O (or other if H2 O insoluble)=1280 μg/mL (stock solution). Dilute DAA stock solution 1:10 with RPMI-1640: 0.5 mL DAA stock solution+4.5 mL RPMI-1640=128 μg/mL (DAA working solution).
(§5) Inoculate rows A-H, columns 2-12 with 100 μl of RPMI-1640 using Eppendorf repeater pipette. Inoculate rows A-C columns 1 and 2 with 100 μl of 1st antibiotic (i.e. DAA-1) using electronic pipette. Inoculate rows E-G columns 1 and 2 with 100 μl of 2nd antibiotic (i.e. DAA-2) using electronic pipette. […] Plate is now ready for fungal inocula, which involves pipetting 100 μl of the inocula into all wells in rows A-C columns 1-12 and rows E-G columns 1-12. […]
(§6) Five colonies greater than 1 mm in diameter are suspended in a spectrophotometer cuvette containing 5 mL of sterile, 0.85% saline (colonies are obtained from 24 hrs. old Candida and Torulopsis cultures, while Cryptococcus colonies are chosen from 48 hrs. old cultures). Spectrophotometer is set to read % transmission at a wavelength of 530 nm, and is standardized using two cuvettes. […] Fungal inoculum is now prepared and ready to be introduced to microplates. […]

The next test has as its system ZR-75-1. The test can be described thus: Antineoplastic activity, fluorescence based live-cell/dead cell ratio. The following applies: Homo sapiens, ZR-75-1, ZR-75-1. As for the experimental part:
as §1

For the next test, the system named is ASPC-1. Described as above. As to conditions: Homo sapiens, ASPC1, ASPC-1. As for the experimental part:
as §1

Test [5] concerns E. coli ATCC 25922. The test can be described thus: Microbroth dilution assay of antimicrobial susceptibility (MIC). The format is cell-based. The following applies: Escherichia coli, ATCC25922; microdilution, CAMHB, 37° C., 18 hrs. As for the experimental part: It is described below, using E. coli ATCC® 25922, S. aureus ATCC® 25923, and P. aeruginosa ATCC® 27853. Prepare 0.0128 g DAA in 10 mL dH2 O (or 95% EtOH, methanol or DMSO if H2 O insoluble)=1280 μg/mL (stock solution). Dilute DAA stock solution 1:10 with CAMHB (Cation-Adjusted Mueller Hinton Broth): 0.5 mL DAA stock solution+4.5 mL CAMHB=128 μg/mL (DAA working solution). Pipette 100 μl of sterile CAMHB per well into columns 2-12 of rows A-G using Eppendorf repeater pipette. Pipette 100 μl per well of sterile-filtered DAA working solution into columns 1 and 2 of rows A, C, E, G using Jensen electric pipette. Mix and transfer 100 μl from column 2 to 3 of rows A, C, E, G using Jensen pipette. Repeat to column 12 then discard 100 μl from column 12. Rows B, D and F are positive growth control lanes for each organism and contain only CAMHB and the organism--no DAA. Row H is the media additive control lane, if necessary (e.g. MeOH, EtOH, DMSO etc.). The concentration of the media additive is obtained by doing a 1:10 dilution of the additive with CAMHB (0.5 mL additive+4.5 mL CAMHB). Row G is considered to be "negative growth control" and is loaded with only CAMHB and the DAA. Inoculate 0.5 mL TSB (Trypticase Soy Broth) tubes with 3 single colonies each of E. coli, S. aureus, and P. Aeruginosa from TSA plates using sterile needle. Incubate @ 37° C. for 4-6 hr. […]

Another test deals with T. glabrata ATCC 90030. As to the kind of experiment: In vitro antifungal susceptibility assay adapted from NCCLS (MIC). As to conditions: Nakaseomyces glabratus, ATCC90030; RPMI-1640; read-out: MIC. It is filed as cell-based, Torulopsis glabrata. As for the experimental part: as §3, §4, §5, §6
A further test concerns C. neoformans ATCC 90112. Described as above. The format is cell-based, Cryptococcus neoformans. The following applies: Cryptococcus neoformans, ATCC90112; RPMI-1640; read-out: MIC. As for the experimental part: as §3, §4, §5, §6
The test system of a further test is P. aeruginosa ATCC 27853. As to conditions: control limits, Gentamicin 10 mcg disk; cited from earlier work.
Test [6] concerns S. aureus ATCC 25923. The following applies: control limits, Gentamicin 10 mcg disk; cited from earlier work.
For test [7], the system named is E. coli ATCC 25922. As to conditions: control limits, Gentamicin 10 mcg disk; cited from earlier work.
Setting [8] is: Staphylococcus aureus, ATCC25923, 18 h, read-out: MIC.

In brackets after ≈: the same amount, converted by molar mass. Read-outs that look alike come from different tables or passages of the source.

`CC1NCc2cc3c(cc2C1c1ccccc1)CNC(C)C3c1ccccc1.Cl.Cl` (centres unmarked) [1,2,3,4,6,7,8,9-octahydro-3,8-dimethyl-4,9-diphenyl-pyrido[3,4-g]isoquinoline dihydrochloride]: in the test with Hymenolepis nata, the anti-parasitic activity result was “has an anti-parasitic activity”.

Regarding `O=C(O)c1cn(C2CC2)c2cc(N3CCNCC3)c(F)cc2c1=O` [Ciprofloxacin], the MIC in the test on S. aureus was 0.25 to 1 µg/mL.

As a reminder, the IC50 is the point on the concentration scale where inhibition reaches its midpoint. For the compound `Cc1cnc2cc3cncc(C)c3cc2c1` [Derivative No. 1], the MIC against S. aureus ATCC 25923 [1] (18 hrs, listed as 1,8-DAA-3,6-(Me)2.HCl) was 32 µg/mL (≈ 154 µM); in test [2] it was 64 µg/mL (≈ 307 µM); in [3], 4 µg/mL (≈ 19.2 µM); in test [4] it was over 64 µg/mL; against C. albicans ATCC 90028 (RPMI-1640, listed as 1,8-DAA-3,6-(Me)2.HCl), 64 µg/mL (≈ 307 µM). Besides, the IC50 was found to be 139.2 µg/mL with 41-SK (listed as 1,8-DAA(Me)2 · HCl), 47.3 µg/mL with ZR-75-1 and 58 µg/mL with ASPC-1.

Consider `Cc1cc2cc3c(C)c[n+]([O-])cc3cc2[n+]([O-])c1` [Derivative No. 7], for which the MIC with S. aureus ATCC 25923 [1] (setting [8]) came to 0.125 µg/mL (≈ 0.52 µM); with E. coli ATCC 25922 [5] it was 4 µg/mL (≈ 16.6 µM). Besides, the IC50 in the test with 41-SK (Homo sapiens, read-out: IC50) turned out to be 11.3 µg/mL; in the test on ZR-75-1 it was 1.9 µg/mL; in the test with ASPC-1, 9.3 µg/mL.

In the case of `Cc1cc2cc3c(C)c[n+](C)cc3cc2[n+](C)c1` [Example 8.4, N,N'-dimethyl-1,8-DAA-3,6-(Me)2 tetrafluoroborate hemihydrate], the IC50 with 41-SK (Homo sapiens, read-out: IC50) stood at 35.9 µg/mL; in the test on ZR-75-1, 38.3 µg/mL; with ASPC-1 it was 62.5 µg/mL.

In the case of `Cc1cnc2c(c1)C(=O)c1c(C)cncc1C2=O` [Example 14], the MIC is 1 µg/mL (≈ 4.2 µM) with S. aureus ATCC 25923 [1] (setting [8]); 8 µg/mL (≈ 33.6 µM) in the test with C. albicans ATCC 90028 (Candida albicans, ATCC90028, RPMI-1640, read-out: MIC); 4 µg/mL (≈ 16.8 µM) in the test with T. glabrata ATCC 90030; 4 µg/mL (≈ 16.8 µM) in the test with C. neoformans ATCC 90112.

Turning to `Cc1cncc2cc3c(C)cncc3cc12` [Example 17], the MIC with S. aureus ATCC 25923 [1] (setting [8]) was determined as 64 µg/mL (≈ 307 µM).

Take `CC1(C)S[C@@H]2[C@H](NC(=O)Cc3ccccc3)C(=O)N2[C@H]1C(=O)O` [Penicillin]: the MIC with S. aureus is 8 to 16 µg/mL.

With `CN(C)C1C(=O)C(C(N)=O)=C(O)C2(O)C(=O)C3=C(O)c4c(O)cccc4C(C)(O)C3CC12` (centres unmarked) [Tetracycline], the MIC with S. aureus is 0.5 to 32 µg/mL.

Consider Gentamicin, for which the MIC in the test on S. aureus was 0.25 to 16 µg/mL. For the same compound, the control zone diameter in the test on P. aeruginosa ATCC 27853 is 16-21 mm; with S. aureus ATCC 25923 [6], 19-27 mm; with E. coli ATCC 25922 [7], 19-26 mm.
